Among the data in ChEMBL document CHEMBL1138241, “First gallamine-tacrine hybrid: design and characterization at cholinesterases and the M2 muscarinic receptor” (J Med Chem, 2007) are EC50 and IC50 values, retold here.

Test [1] has as its target T1, Muscarinic acetylcholine receptor M2 (Sus scrofa, UniProt P06199).
T1 sequence (P06199 whole entry): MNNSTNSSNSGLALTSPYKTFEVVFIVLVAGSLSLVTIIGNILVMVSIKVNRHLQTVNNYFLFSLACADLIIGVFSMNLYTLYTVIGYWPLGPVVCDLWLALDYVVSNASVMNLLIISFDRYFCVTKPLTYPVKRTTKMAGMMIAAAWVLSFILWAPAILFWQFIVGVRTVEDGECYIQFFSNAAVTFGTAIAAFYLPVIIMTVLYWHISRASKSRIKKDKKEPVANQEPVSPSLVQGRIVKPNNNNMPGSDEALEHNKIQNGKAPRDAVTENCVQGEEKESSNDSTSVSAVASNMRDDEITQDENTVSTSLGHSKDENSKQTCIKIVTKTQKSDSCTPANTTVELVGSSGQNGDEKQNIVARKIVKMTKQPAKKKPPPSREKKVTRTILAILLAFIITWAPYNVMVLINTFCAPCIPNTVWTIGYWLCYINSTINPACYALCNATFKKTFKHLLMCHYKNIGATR
Description: Inhibition of [3H]NMS dissociation from porcine muscarinic M2 receptor

For test [2], the target named is Acetylcholinesterase (Torpedo californica, UniProt P04058).
Sequence of Acetylcholinesterase (Torpedo californica, UniProt P04058) (P04058 whole entry): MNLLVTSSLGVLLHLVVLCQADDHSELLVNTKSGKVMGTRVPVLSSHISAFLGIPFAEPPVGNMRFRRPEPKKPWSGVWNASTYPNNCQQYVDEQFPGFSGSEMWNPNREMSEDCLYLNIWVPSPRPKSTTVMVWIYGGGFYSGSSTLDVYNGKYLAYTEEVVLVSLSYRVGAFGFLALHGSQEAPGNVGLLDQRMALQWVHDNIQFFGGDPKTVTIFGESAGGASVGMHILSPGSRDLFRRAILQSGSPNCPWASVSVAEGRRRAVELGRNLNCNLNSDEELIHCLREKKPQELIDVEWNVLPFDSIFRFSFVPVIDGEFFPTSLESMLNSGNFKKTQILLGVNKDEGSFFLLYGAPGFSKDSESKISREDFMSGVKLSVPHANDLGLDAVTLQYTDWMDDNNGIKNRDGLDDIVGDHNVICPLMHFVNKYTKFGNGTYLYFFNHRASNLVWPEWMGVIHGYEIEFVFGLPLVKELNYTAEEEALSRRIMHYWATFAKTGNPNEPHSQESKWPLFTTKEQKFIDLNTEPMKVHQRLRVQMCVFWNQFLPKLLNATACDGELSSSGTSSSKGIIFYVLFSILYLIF
Description: Inhibition of Torpedo californica Acetylcholinesterase
In test [3] the target is Acetylcholinesterase (Homo sapiens, UniProt P22303).
Sequence of Acetylcholinesterase (Homo sapiens, UniProt P22303) (P22303 whole entry): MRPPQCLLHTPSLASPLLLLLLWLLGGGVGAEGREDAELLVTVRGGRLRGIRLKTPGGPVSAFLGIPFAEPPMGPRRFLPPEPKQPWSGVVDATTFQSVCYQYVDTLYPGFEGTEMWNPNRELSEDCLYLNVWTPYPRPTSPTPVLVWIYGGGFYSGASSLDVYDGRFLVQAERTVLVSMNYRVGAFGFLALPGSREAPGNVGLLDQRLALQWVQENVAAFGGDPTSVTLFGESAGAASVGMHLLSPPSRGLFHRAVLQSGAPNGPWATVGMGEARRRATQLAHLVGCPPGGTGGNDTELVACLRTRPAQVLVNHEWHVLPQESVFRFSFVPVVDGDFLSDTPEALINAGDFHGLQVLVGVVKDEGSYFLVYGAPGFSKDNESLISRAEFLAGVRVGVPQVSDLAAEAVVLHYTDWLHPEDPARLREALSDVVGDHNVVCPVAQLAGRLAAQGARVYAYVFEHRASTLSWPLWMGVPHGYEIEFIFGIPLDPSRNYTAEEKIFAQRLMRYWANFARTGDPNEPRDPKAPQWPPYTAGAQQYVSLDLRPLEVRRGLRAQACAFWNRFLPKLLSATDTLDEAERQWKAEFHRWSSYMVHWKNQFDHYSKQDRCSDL
Description: Inhibition of human Acetylcholinesterase
In test [4] the target is Acetylcholinesterase (Electrophorus electricus, UniProt O42275).
Sequence of Acetylcholinesterase (Electrophorus electricus, UniProt O42275) (O42275 whole entry): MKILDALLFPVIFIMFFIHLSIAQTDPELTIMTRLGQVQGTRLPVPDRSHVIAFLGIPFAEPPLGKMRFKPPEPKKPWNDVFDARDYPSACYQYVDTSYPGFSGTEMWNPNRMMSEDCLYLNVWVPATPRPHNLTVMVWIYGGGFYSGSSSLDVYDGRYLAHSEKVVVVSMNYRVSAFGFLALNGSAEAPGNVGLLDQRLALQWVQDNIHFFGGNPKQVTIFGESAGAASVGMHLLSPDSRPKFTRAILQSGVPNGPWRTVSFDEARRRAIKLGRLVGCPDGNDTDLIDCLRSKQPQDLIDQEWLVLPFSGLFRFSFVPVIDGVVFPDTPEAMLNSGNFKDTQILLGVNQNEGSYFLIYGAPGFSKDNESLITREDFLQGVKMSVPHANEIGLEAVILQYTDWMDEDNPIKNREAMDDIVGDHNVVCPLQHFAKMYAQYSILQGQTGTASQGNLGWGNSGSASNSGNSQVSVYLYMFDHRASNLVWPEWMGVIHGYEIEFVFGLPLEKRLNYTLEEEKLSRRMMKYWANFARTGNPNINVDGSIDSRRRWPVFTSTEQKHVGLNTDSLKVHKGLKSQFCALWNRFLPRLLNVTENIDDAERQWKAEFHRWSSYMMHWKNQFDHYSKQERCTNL
Description: Inhibition of Electrophorus electricus Acetylcholinesterase

On to `CC[N+](CC)(CC)CCOc1cc(OCC[N+](CC)(CC)CC)c(C(=O)NCCCCCC(=O)NNc2c3c(nc4ccccc24)CCCC3)cc1OCC[N+](CC)(CC)CC`, for which the midpoint of the response in test [1], the EC50, lay at 0.0014 µM. Half-maximal inhibition at Acetylcholinesterase [2] (IC50) required 0.0277 µM.

On to `CC[N+](CC)(CC)CCOc1ccc(C(=O)NCCCCCC(=O)NNc2c3c(nc4ccccc24)CCCC3)cc1`, for which the EC50 – broadly, the concentration needed to bring the measured effect to its halfway point – in test [1] was 0.0013 µM. The half-inhibitory concentration (IC50) (usually the point on the concentration scale where inhibition reaches its midpoint) against Acetylcholinesterase [3] is 0.00761 µM; against Acetylcholinesterase [4], 0.000467 µM; against Acetylcholinesterase [2] it was 0.0176 µM.

As for `CC[N+](CC)(CC)CCOc1cc(OCC[N+](CC)(CC)CC)cc(C(=O)NCCCCCC(=O)NNc2c3c(nc4ccccc24)CCCC3)c1`, the EC50 in test [1] stood at 0.0009 µM. For the same compound, the IC50 on Acetylcholinesterase [3] worked out at 0.0158 µM; against Acetylcholinesterase [4], 0.00128 µM; on Acetylcholinesterase [2], 0.00859 µM.

For the compound `CC[N+](CC)(CC)CCOc1ccc(C(=O)NCCCCCC(=O)NNc2c3c(nc4cc(Cl)ccc24)CCCC3)cc1`, the EC50 in test [1] came to 0.005 µM. In addition, the half-maximal inhibitory concentration (IC50) against Acetylcholinesterase [3] worked out at 0.00544 µM; at Acetylcholinesterase [4], 0.026 µM; on Acetylcholinesterase [2], 0.127 µM.

The compound `CC[N+](CC)(CC)CCOc1cc(OCC[N+](CC)(CC)CC)cc(C(=O)NCCCCCC(=O)NNc2c3c(nc4cc(Cl)ccc24)CCCC3)c1` displayed a half-maximal effective concentration (EC50) in test [1] of 0.0015 µM. Further, the IC50 amounted to 0.00675 µM on Acetylcholinesterase [3], 0.048 µM against Acetylcholinesterase [4] and 0.301 µM against Acetylcholinesterase [2].

Compound `CC[N+](CC)(CC)CCOc1cc(OCC[N+](CC)(CC)CC)c(C(=O)NCCCCCC(=O)NNc2c3c(nc4cc(Cl)ccc24)CCCC3)cc1OCC[N+](CC)(CC)CC` registered a half-maximal effective concentration (EC50) in test [1] of 0.001 µM. In addition, the half-inhibitory concentration (IC50) amounted to 0.00654 µM at Acetylcholinesterase [3], 0.09 µM against Acetylcholinesterase [4] and 0.334 µM against Acetylcholinesterase [2].

Take `CC[N+](CC)(CC)CCOc1cccc(OCC[N+](CC)(CC)CC)c1OCC[N+](CC)(CC)CC` [GALLAMINE]: the midpoint of the response in test [1], the EC50, lay at 0.13 µM. Further, the figures for the IC50 against Acetylcholinesterase [3] and against Acetylcholinesterase [4] were 2110 µM and 3150 µM, respectively.
